In ChEMBL document CHEMBL1131520, “A novel (benzodifuranyl)aminoalkane with extremely potent activity at the 5-HT2A receptor” (J Med Chem, 1998):

Columns and labels:
[1] = molecular target: 5-hydroxytryptamine receptor 2A (Rattus norvegicus, UniProt P14842); assay: […] measured for 5-hydroxytryptamine 2A receptor using [3H]-MDL- 100,907 as radioligand in rat cortical homogenates.; type: tissue-based
[2] = molecular target: 5-hydroxytryptamine receptor 2B (Homo sapiens, UniProt P41595); assay: Binding activity against cloned human 5-hydroxytryptamine 2B receptor using [3H]5-HT as the radioligand.
[3] = molecular target: T1, 5-hydroxytryptamine receptor 2C (Homo sapiens, UniProt P28335); assay: Binding activity against cloned human 5-hydroxytryptamine 2C receptor using [125I]DOI as the radioligand.
T1 sequence (P28335 whole entry): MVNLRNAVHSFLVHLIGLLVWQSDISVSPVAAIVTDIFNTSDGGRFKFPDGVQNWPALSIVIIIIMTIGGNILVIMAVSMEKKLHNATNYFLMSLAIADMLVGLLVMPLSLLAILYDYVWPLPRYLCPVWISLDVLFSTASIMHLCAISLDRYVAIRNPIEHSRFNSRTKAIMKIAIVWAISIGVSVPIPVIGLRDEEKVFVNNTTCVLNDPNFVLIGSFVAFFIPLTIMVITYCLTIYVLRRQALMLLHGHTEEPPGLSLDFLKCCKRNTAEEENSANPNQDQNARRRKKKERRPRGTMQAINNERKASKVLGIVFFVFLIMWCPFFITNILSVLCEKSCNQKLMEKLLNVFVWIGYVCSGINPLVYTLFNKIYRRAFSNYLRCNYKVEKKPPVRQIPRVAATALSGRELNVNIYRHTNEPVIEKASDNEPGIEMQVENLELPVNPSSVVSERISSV

[4] = species on record: Rattus norvegicus; assay: Drug discrimination studies in rats(12) expressed as ED50 value; type: functional
[5] = species on record: Rattus norvegicus; assay: Drug discrimination studies in rats(7-15) expressed as ED50 value; type: functional
[6] = molecular target: 5-hydroxytryptamine receptor 2A (Homo sapiens, UniProt P28223); assay: Binding activity against cloned human 5-hydroxytryptamine 2A receptor using [125I]DOI as the radioligand.
[7] = species on record: Rattus norvegicus; assay: Drug discrimination studies in rats(16-19) expressed as ED50 value; type: functional
[8] = species on record: Rattus norvegicus; assay: Drug discrimination studies in rats(9-12) expressed as ED50 value; type: functional
[9] = species on record: Rattus norvegicus; assay: Drug discrimination studies in rats(22) expressed as ED50 values; type: functional

Chain of 5-hydroxytryptamine receptor 2B (P41595 whole entry): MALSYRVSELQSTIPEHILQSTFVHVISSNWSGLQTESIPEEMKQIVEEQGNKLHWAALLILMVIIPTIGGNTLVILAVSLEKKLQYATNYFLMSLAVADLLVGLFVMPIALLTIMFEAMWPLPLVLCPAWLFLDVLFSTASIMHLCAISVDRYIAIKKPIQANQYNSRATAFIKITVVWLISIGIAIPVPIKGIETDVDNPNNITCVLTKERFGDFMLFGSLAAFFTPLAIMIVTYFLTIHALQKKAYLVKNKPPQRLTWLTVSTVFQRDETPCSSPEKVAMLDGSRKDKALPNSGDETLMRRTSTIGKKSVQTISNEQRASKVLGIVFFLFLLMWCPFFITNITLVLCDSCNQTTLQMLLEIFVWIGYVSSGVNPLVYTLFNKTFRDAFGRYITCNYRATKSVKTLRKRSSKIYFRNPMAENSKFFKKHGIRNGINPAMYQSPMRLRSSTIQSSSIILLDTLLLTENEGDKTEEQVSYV
Chain of 5-hydroxytryptamine receptor 2A (Rattus norvegicus, UniProt P14842) (P14842 whole entry): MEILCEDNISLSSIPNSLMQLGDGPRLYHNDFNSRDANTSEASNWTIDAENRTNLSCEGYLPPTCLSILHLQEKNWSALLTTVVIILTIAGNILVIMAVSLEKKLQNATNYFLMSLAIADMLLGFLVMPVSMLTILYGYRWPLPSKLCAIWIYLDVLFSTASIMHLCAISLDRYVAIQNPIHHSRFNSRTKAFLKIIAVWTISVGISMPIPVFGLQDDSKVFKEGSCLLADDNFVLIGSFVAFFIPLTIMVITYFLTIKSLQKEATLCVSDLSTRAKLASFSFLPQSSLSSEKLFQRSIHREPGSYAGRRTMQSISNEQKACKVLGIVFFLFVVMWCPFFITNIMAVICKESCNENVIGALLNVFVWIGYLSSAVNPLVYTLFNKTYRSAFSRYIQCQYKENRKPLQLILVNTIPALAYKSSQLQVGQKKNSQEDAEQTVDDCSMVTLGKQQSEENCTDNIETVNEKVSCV
Chain of 5-hydroxytryptamine receptor 2A (Homo sapiens, UniProt P28223) (P28223 whole entry): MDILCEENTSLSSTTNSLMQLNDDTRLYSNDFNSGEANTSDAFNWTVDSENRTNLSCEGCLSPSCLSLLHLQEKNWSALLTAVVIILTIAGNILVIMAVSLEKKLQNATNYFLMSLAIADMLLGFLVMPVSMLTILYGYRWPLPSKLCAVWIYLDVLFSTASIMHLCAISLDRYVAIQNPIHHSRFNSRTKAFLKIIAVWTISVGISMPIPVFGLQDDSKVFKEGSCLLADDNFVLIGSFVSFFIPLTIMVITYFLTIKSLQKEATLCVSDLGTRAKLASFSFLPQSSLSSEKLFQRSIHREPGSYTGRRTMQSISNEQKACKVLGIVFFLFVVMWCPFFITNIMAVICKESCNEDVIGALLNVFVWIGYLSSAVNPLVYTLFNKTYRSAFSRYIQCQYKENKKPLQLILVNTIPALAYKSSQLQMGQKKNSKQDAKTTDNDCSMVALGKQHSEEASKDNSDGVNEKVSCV

Compound	Ki [1]	Ki [2]	Ki [3]	also measured
CC(N)Cc1c2c(c(Br)c3c1OCC3)OCC2 (configuration not stated)	14.8 nM	–	–	–
CC(N)Cc1c2ccoc2c(Br)c2ccoc12 (configuration not stated)	0.23 nM	–	–	–
COc1cc(CC(C)N)c(OC)cc1I (configuration not stated)	–	42.7 nM	1.82 nM	ED50 [4]: 0.3 µmol/kg
CC(N)Cc1c2c(c(Br)c3c1OCC3)OCC2 (racemic)	–	–	–	ED50 [5]: 0.061 µmol/kg
CC(N)Cc1c2ccoc2c(Br)c2ccoc12 (racemic)	–	0.19 nM	0.02 nM	Ki [6]: 0.04 nM; ED50 [7]: 0.022 µmol/kg; ED50 [8]: 0.039 µmol/kg
CCN(CC)C(=O)[C@@H]1C=C2c3cccc4[nH]cc(c34)C[C@H]2N(C)C1 [LYSERGIDE]	–	–	–	ED50 [9]: 0.04 µmol/kg
